Our source for the IC50 values is US11691992B2 (Anacor Pharmaceuticals, Inc., priority 2017, dated 2023).

pIC50: −log10 of the molar value.

One experiment deals with IL3000 T. congolense (drug sensitive) strain. The experiment in a line: In vitro Alamar Blue 72 h drug sensitivity assay for T. congolense. Particulars: Trypanosoma congolense; bloodstream form, 69 h + 3 h resazurin, 34° C.; classes A-C; read-out: IC50: I Org. Growth T. congolense IL-3000, 3 d. It is filed as cell-based. How it is done: Example 106. In Vitro Alamar Blue 72 h Drug Sensitivity Assay for T. congolense
Compounds were tested in vitro for chemotherapeutic potency against the IL3000 T. congolense (drug sensitive) strain, using the Alamar Blue assay with several modifications. Test compounds were prepared as 10 mg/mL DMSO stocks for each assay run. Compounds were assayed in at least three separate, independent test runs and an 11-point dilution curve was used to determine the IC50 values. Bloodstream form trypanosomes were supported in HMI media containing 20% bovine serum and were incubated with test compounds for 69 h at 34° C. in a humidified atmosphere containing 5% CO2. Thereafter, 10 μL of Resazurin dye (12.5 mg in 100 mL of phosphate buffered saline, Sigma-Aldrich, Buchs, Switzerland) were added for an additional 3 h. Plates were then read using a fluorescent plate reader (Spectramax, Gemini XS, Bucher Biotec, Basel, Switzerland) using an excitation wavelength of 536 nm and an emission wavelength of 588 nm. Data points were averaged to generate sigmoidal dose-response curves and IC50 values were determined using Softmax Pro 5.2 software.
A general note: Alamar Blue is a resazurin reagent that responds to reducing activity.
Turning to `CCc1c(C(=O)Nc2ccc3c(c2)B(O)OC3)nnn1-c1ccccn1` [Example 49, 5-ethyl-N-(1-hydroxy-1,3-dihydrobenzo[c][1,2]oxaborol-6-yl)-1-(pyridin-2-yl)-1H-1,2,3-triazole-4-carboxamide], the pIC50 was > 7.00.

The subject of a further experiment is luciferase-expressing L. major parasites developing intracellularly inside RAW 264.7 macrophages. Kind of experiment: Leishmania major intracellular amastigote assay in RAW 264.7 macrophages (luciferase). It is filed as cell-based. Particulars: RAW264.7, 96 hours, read-out: IC50: I Org. intracellular amastigote Growth L. major, 4 d. The source says: Example 107. Assay for Leishmania major Intracellular Amastigote Assay in RAW 264.7 Macrophages
The intracellular amastigote assay is a microtiter plate drug sensitivity assay that uses the activity of luciferase as a measure of proliferation of luciferase-expressing L. major parasites developing intracellularly inside RAW 264.7 macrophages in the presence of antileishmanial drugs or experimental compounds. (Buckner, F. S., and A. J. Wilson. Am J Prop Med Hyg, 2005, 72(5): 600-605.) As the activity of luciferase and its associated luminescence after addition of the substrate, luciferin, is relative to parasite growth, a test compound that inhibits the growth of the parasite will result in a lower luminescence. The luciferase-expressing L. major parasite used in this assay is genetically modified by adding the luciferase coding region to the pLEXSY-hyg2 vector (Jena Biosciences). The luciferase expression construct was created by digesting the luciferase coding region (1.66 kbp) of pGL3-Basic (Promega) by using two restriction enzymes, NcoI/EagI, followed by electrophoretic separation of the luciferase coding region on a 1% agarose gel. The luciferase coding region was then ligated into pLEXSY-hyg2 vector (Jena Biosciences) which had previously been digested with NcoI/NotI. The vector was linearized with SwaI and subsequently gel purified prior to transfection into L. major parasites. Transfections were carried out by electroporation at 480V, 13Ω, and 500 μF (0.4 mL of 1×10^8 parasites/mL, and 0.1 mL of 10 μg DNA). Selection for transfectants was then carried out using hygromycin B (100 μg/mL). RAW 264.7 macrophages were cultured in DMEM media (ATCC Cat #30-2002) supplemented with heat-inactivated 10% FBS (Invitrogen Cat #10438-034). To begin the assay, macrophages were harvested from culture by removing all spent media, adding in 10 mL fresh media, scraping cells, and counted using Trypan Blue. The cells were resuspended in DMEM/10% HIFBS media at 2.0×10^5 cells/mL, and then dispensed in a volume of 50 μL to yield a final concentration of 10,000 macrophages/well in 384 well tissue-culture treated sterile white plates (Nunc Cat #12-565-343) using a Tecan EVO Freedom robotics system. The plates were then incubated at 37° C. overnight in 5% CO2 atmosphere for 24 hours. After overnight incubation, the media was removed from each well using the Tecan EVO Freedom robot, and L. major promastigotes were added to each well and allowed to invade the RAW macrophages. Promastigotes were cultured in Schneider's medium (Invitrogen Cat #11720-067) supplemented with 20% heat inactivated FBS. Metacyclic stage promastigotes provide the best invasion for this assay, and cultures should be grown to increase the percentage of metacyclic promastigotes for best results. Promastigotes were harvested from culture, counted, suspended at 2×10^6 promastigotes/mL in DMEM/HIFBS media, and 100,000 promastigotes were dispensed per well in a volume of 50 μL. After overnight incubation, the media was removed from each well using the Tecan Freedom EVO robot, and each well was subsequently washed three times with 40 μF of fresh DMEM/HIFBS medium to remove all extracellular promastigotes. After the third wash, 69.2 μF of DMEM/HIFBS medium was added to each well using the Tecan EVO Freedom robot. Drug plates were prepared with the Tecan EVO Freedom using sterile 96 well plates containing twelve duplicate two-fold serial dilutions of each test compound suspended in DMSO. 7.8 μF of diluted test compound was added to the 69.2 μF of media present in each well providing a 10 fold final dilution of compound. The final concentration range tested was 0.5 to 10,000 ng/ml for all assays. The plates were next incubated at 37° C. and 5% CO2 for 96 hours. After 96 hours of incubation, 7.5 μF of a luciferin solution (Caliper Fife Science) diluted to 150 μg/mF was added to each well, and the plates were incubated for 30 minutes at 37° C., in the dark. […]
For the compound `CCn1nnc(C(=O)Nc2ccc3c(c2)B(O)OC3)c1C(F)(F)F` [Example 28, 1-ethyl-N-(1-hydroxy-1,3-dihydrobenzo[c][1,2]oxaborol-6-yl)-5-(trifluoromethyl)-1H-1,2,3-triazole-4-carboxamide], the pIC50 is ≥ 6.00.
As for `O=C(Nc1ccc2c(c1)B(O)OC2)c1nnn(C2CC2)c1C(F)(F)F` [Example 29, 1-cyclopropyl-N-(1-hydroxy-1,3-dihydrobenzo[c][1,2]oxaborol-6-yl)-5-(trifluoromethyl)-1H-1,2,3-triazole-4-carboxamide], the pIC50 was ≥ 6.00.
As to `O=C(Nc1ccc2c(c1)B(O)OC2)c1nnn(C2CCCC2)c1C(F)(F)F` [Example 30, 1-cyclopentyl-N-(1-hydroxy-1,3-dihydrobenzo[c][1,2]oxaborol-6-yl)-5-(trifluoromethyl)-1H-1,2,3-triazole-4-carboxamide], the pIC50 was ≥ 6.00.
In the case of `CCCn1nnc(C(=O)Nc2ccc3c(c2)B(O)OC3)c1C(F)(F)F` [Example 31, N-(1-hydroxy-1,3-dihydrobenzo[c][1,2]oxaborol-6-yl)-1-propyl-5-(trifluoromethyl)-1H-1,2,3-triazole-4-carboxamide], the negative logarithm of the IC50 (pIC50) was ≥ 6.00.
`CC(C)n1nnc(C(=O)Nc2ccc3c(c2)B(O)OC3)c1C(F)(F)F` [Example 32, N-(1-hydroxy-1,3-dihydrobenzo[c][1,2]oxaborol-6-yl)-1-isopropyl-5-(trifluoromethyl)-1H-1,2,3-triazole-4-carboxamide]: the pIC50 was ≥ 6.00.
Regarding `COCCn1nnc(C(=O)Nc2ccc3c(c2)B(O)OC3)c1C(F)(F)F` [Example 33, N-(1-hydroxy-1,3-dihydrobenzo[c][1,2]oxaborol-6-yl)-1-(2-methoxyethyl)-5-(trifluoromethyl)-1H-1,2,3-triazole-4-carboxamide], the pIC50 was ≥ 6.00.
Turning to `O=C(Nc1ccc2c(c1)B(O)OC2)c1nnn(CC2CC2)c1C(F)(F)F` [Example 34, 1-(cyclopropylmethyl)-N-(1-hydroxy-1,3-dihydrobenzo[c][1,2]oxaborol-6-yl)-5-(trifluoromethyl)-1H-1,2,3-triazole-4-carboxamide], the pIC50 was ≥ 6.00.
For the compound `O=C(Nc1ccc2c(c1)B(O)OC2)c1nnn(CC2CCCC2)c1C(F)(F)F` [Example 35, 1-(cyclopentylmethyl)-N-(1-hydroxy-1,3-dihydrobenzo[c][1,2]oxaborol-6-yl)-5-(trifluoromethyl)-1H-1,2,3-triazole-4-carboxamide], the pIC50 is ≥ 6.00.
Regarding `CCCn1nnc(C(=O)Nc2ccc3c(c2)B(O)OC3)c1C` [Example 36, N-(1-hydroxy-1,3-dihydrobenzo[c][1,2]oxaborol-6-yl)-5-methyl-1-propyl-1H-1,2,3-triazole-4-carboxamide], the pIC50 is ≥ 6.00.
In the case of `Cc1c(C(=O)Nc2ccc3c(c2)B(O)OC3)nnn1C(C)C` [Example 37, N-(1-hydroxy-1,3-dihydrobenzo[c][1,2]oxaborol-6-yl)-1-isopropyl-5-methyl-1H-1,2,3-triazole-4-carboxamide], the pIC50 was ≥ 6.00.
Turning to `Cc1c(C(=O)Nc2ccc3c(c2)B(O)OC3)nnn1C1CC1` [Example 38, 1-cyclopropyl-N-(1-hydroxy-1,3-dihydrobenzo[c][1,2]oxaborol-6-yl)-5-methyl-1H-1,2,3-triazole-4-carboxamide], the pIC50 was ≥ 6.00.
Consider `Cc1c(C(=O)Nc2ccc3c(c2)B(O)OC3)nnn1CC(F)(F)F` [Example 39, N-(1-hydroxy-1,3-dihydrobenzo[c][1,2]oxaborol-6-yl)-5-methyl-1-(2,2,2-trifluoroethyl)-1H-1,2,3-triazole-4-carboxamide], for which the pIC50 is ≥ 6.00.
With `COCCn1nnc(C(=O)Nc2ccc3c(c2)B(O)OC3)c1C` [Example 40, N-(1-hydroxy-1,3-dihydrobenzo[c][1,2]oxaborol-6-yl)-1-(2-methoxyethyl)-5-methyl-1H-1,2,3-triazole-4-carboxamide], the pIC50 was ≥ 6.00.
Turning to `Cc1c(C(=O)Nc2ccc3c(c2)B(O)OC3)nnn1C1CCCC1` [Example 41, 1-cyclopentyl-N-(1-hydroxy-1,3-dihydrobenzo[c][1,2]oxaborol-6-yl)-5-methyl-1H-1,2,3-triazole-4-carboxamide], the pIC50 was ≥ 6.00.
For the compound `Cc1c(C(=O)Nc2ccc3c(c2)B(O)OC3)nnn1CC1CC1` [Example 43, 1-(cyclopropylmethyl)-N-(1-hydroxy-1,3-dihydrobenzo[c][1,2]oxaborol-6-yl)-5-methyl-1H-1,2,3-triazole-4-carboxamide], the pIC50 is 4.30 to 5.00.
As for `Cc1c(C(=O)Nc2ccc3c(c2)B(O)OC3)nnn1CC1CCCC1` [Example 44, 1-(cyclopentylmethyl)-N-(1-hydroxy-1,3-dihydrobenzo[c][1,2]oxaborol-6-yl)-5-methyl-1H-1,2,3-triazole-4-carboxamide], the pIC50 is 4.30 to 5.00.
The same measure, in the same setting: the result for `O=C(Nc1ccc2c(c1)B(O)OC2)c1nnn(C2CCC2)c1C(F)(F)F` [Example 45, 1-cyclobutyl-N-(1-hydroxy-1,3-dihydrobenzo[c][1,2]oxaborol-6-yl)-5-(trifluoromethyl)-1H-1,2,3-triazole-4-carboxamide] reads 4.30 to 5.00.

The next experiment has as its system TdTomato-modified T. cruzi (CL strain) in Vero cells. Kind of experiment: In vitro IC50 measurement of T. cruzi amastigote killing using TdTomato-modified T. cruzi (CL strain). It is filed as cell-based. Particulars: Trypanosoma cruzi, 72 h, fluorescence, read-out: IC50: I Org. amastigote Growth T. cruzi CL TdTomato, 3 d. The method, then:
Example 112. In Vitro IC50 Measurement of T. cruzi Amastigote Killing Using TdTomato-Modified T. cruzi (CL Strain)
The T. cruzi parasites used in this assay were genetically modified to express Td Tomato fluorescent protein. Vero cells (African green monkey kidney epithelial cells) were harvested from continuous cultures using trypsin and added to the inner 60 wells of 96-well Greiner Bio One plates (plate catalog #655090) at 200 ul/well of […]. Cells were allowed to adhere for 1 h before infection with T. cruzi. T. cruzi for infection were harvested from previously-infected Vero cells, washed, pelleted and resuspended at 5×10^6/mL. 50 uL of parasites were added to each well containing Vero cells. Compounds were prepared from 5 mM stock concentrations in DMSO to final concentrations in wells ranging from 5 uM to 5 nM. Wells were provided for negative controls, lacking compounds. Plates were placed into a 37° C. incubator for 20 min, then a “Day 0” reading was taken on a Synergy H4 plate reader to record initial fluorescence levels, at 544 (excitation) and 612 nm (emission). 96-well plates were placed in Tupperware containers with wet paper towels and incubated at 37° C. incubator for 72 h. After 72 h plates were reread (Day 3 reading) and data analyzed using Excel and/or Graphpad software. Day 0 fluorescence was subtracted from Day 3 to remove input parasite fluorescence. Growth curves are generated and 50% and 90% inhibitory concentrations are determined by nonlinear regression analysis.
For `CCc1c(C(=O)Nc2ccc3c(c2)B(O)OC3)nnn1-c1ccccn1` [Example 49, 5-ethyl-N-(1-hydroxy-1,3-dihydrobenzo[c][1,2]oxaborol-6-yl)-1-(pyridin-2-yl)-1H-1,2,3-triazole-4-carboxamide], the pIC50 was > 6.22.

As a reminder, the pIC50 is the IC50 on a negative log10 scale, so that one unit is a factor of ten.
